The source of these data is US20170073659A1, “NOVEL LYSYL TRNA SYNTHETASE FRAGMENT AND MICROVESICLES COMPRISING SAME” (Medicinal Bioconvergence Research Center, priority 2014, published 2017).

Residues, ends and D or L forms follow the SMILES beside them. *: point of attachment. Cbz = O=C(OCc1ccccc1)*; CH2F = FC*

For series [1], the system named is HCT116 cells. Briefly: KRS cleavage in cells (GFP-KRS, western blot with anti-GFP antibody). Type of series: cell-based. The method, then: The cells were lysed with 50 mM Tris-HCl (pH 7.4) buffer containing 150 mM NaCl, 10 mM NaF, 12 mM beta-glycerophosphate, 1 mM EDTA, 1% NP-40, 10% glycerol, and protease inhibiting agent. Then, the supernatant was dissolved in SDS sample buffer, followed by separation using SDS-PAGE. For immunoblotting of endogenous KRS, anti-KRS antibody was used. Antibodies against Hsp90, syntenin-1, GFP, myc, caspase-3, -6, -8, -9, while syntenin-1 were purchased from Santa Cruz, and antibodies against alix were purchased from Cell Signaling. The anti-KRS antibody was manufactured by ordinary procedures in which KRS protein (Genbank Accession No. NP_005539.1) represented by SEQ ID NO: 2 was injected into New Zealand white rabbits to induce immune response and their antibodies were obtained.
(In general: In western blotting, separated proteins are transferred to a membrane and probed.)

Series [2] deals with HCT116 cells. Description: KRS secretion test (TCA precipitation, western blot). Type of series: cell-based. As to conditions: for KRS secretion after caspase inhibitor treatment: HCT116 cells, serum starvation media, inhibitor 14 uM, 12 hr, anti-KRS antibody; for secretion of KRS variant compared with WT: myc-tagged variant transfected into HCT116 cells, serum starvation 12 hr, anti-myc antibody. The method, then:
HCT116 cells were incubated in RPMI media containing 10% FBS (Hyclone), and were grown to 60% confluency on 60-mm dish. The cells were washed twice with PBS, incubated in serum-free RPMI media, and treated with 10 ng/ml TNF-α for 12 hr. The supernatant of the cell culture liquid was cautiously collected, followed by centrifugation at 500 g for 10 min. The supernatant thus obtained was again centrifuged at 10,000 g for 30 min, thereby removing membrane organelles. Then, 12% TCA was added to the supernatant, followed by culture at 4° C. for 12 hr, so the supernatant was subjected to precipitation treatment. After the precipitation treatment, the supernatant was centrifuged at 18,000 g for 15 min, and the upper part was then discarded and the remaining pellets were neutralized with 100 mM HEPES (pH 8.0), and then 5× sample buffer was added to perform separation using SDS-PAGE. The products separated by SDS-PAGE were western blotted using anti-KRS antibody.

The test system of series [3] is HCT116 cells. Briefly: KRS exosome secretion (exosomes isolated at 100,000 g, western blot). Type of series: cell-based. To be noted: for exosome secretion of KRS variant compared with WT: myc-tagged variant transfected into HCT116 cells, serum starvation 12 hr. The method, then:
HCT116 cells were incubated for a predetermined period of time in each treatment condition (especially, serum-starvation condition), and then the media were separated and consecutively centrifuged. Centrifugation was conducted three times at 500 g (10 min), 10,000 g (30 min), and 100,000 g (90 min) to form microvesicle pellets. The amount of microvesicle proteins was determined by using Bradford assay.

Series [4] relates to KRS and syntenin-1. Briefly: Bimolecular fluorescence complementation (BiFC) assay. Type of series: cell-based. As to conditions: KRS-VN173 and syntenin-1-VC155 transfected cells, serum starvation 4 hr. The method, then:
KRS-VN173 plasmid and syntenin-1-VC155 plasmid were all transduced in HCT116 cells, and the cells were incubated in starvation condition or serum-free condition for 4 hr. The HCT116 cells were located on 9-mm coverslip, fixed using 4% paraformaldehyde, and washed shortly with cool PBS. The cells were incubated in 5% BSA blocking buffer for 1 hr, and DAPI stained for 10 min. The cells were washed six times with cool PBS five times for 5 min for each time, and then mounted on slide glass. Thereafter, the samples were observed using confocal laser scanning microscope A1 (Nikon).

Series [5] concerns KRS and syntenin-1. Description: KRS-syntenin-1 interaction by immunoprecipitation and western blot. Type of series: cell-based. As to conditions: for binding of KRS variant with syntenin-1 compared with WT: myc-tagged variant transfected into cells, immunoprecipitation and western blot. The method, then: For immunoprecipitation, the cells were lysed at 4° C. in 50 mM HEPES (pH 7.4) buffer containing 150 mM NaCl, 0.5% NP-40, 2 mM EDTA, 5% glycerol and protease inhibiting agent (Calbiochem, San Diego, Calif., USA). Protein extracts were cultured together with protein-specific antibodies thereagainst with stirring at 4° C. In addition, protein G agarose was added. 4 hr after the addition of the protein G agarose, precipitate samples were obtained by centrifugation. The precipitate samples were washed three times for 5 min using cool lysis buffer. The precipitates were separated by SDS-PAGE.

The subject of series [6] is RAW264.7 cells. Briefly: TNF-alpha secretion ELISA assay. Type of series: cell-based. As to conditions: RAW 264.7 cells; 100 nM KRS proteins or KRS exosomes 0.05, 0.5, 5 ug. The method, then:
RAW264.7 cells (2×10^4) were incubated in 24-well plate containing DMEM supplemented with 10% FBS and 1% antibiotic for 12 hr, and starved in serum starvation media for 2 hr. 100 nM KRS protein (WT, ▴N12 each) and KRS exosomes (0.05, 0.5, 5 ug) were added, followed by treatment for 6 hr. Thereafter, cell media were collected by centrifugation at 3,000 g for 5 min. TNF-alpha secreted from the cells was detected using the TNF-alpha ELISA kit (Pharmingen, BD Science) according to the manufacturer's protocol.

A further series can be described thus: Cytokine activity of KRS. To be noted: WT compared with N-terminus truncated KRS.
For series [7], the system named is RAW264.7 cells. Briefly: Wound healing assay. Type of series: cell-based. As to conditions: RAW 264.7 monolayer; 100 nM KRS proteins or KRS exosomes 0.05, 0.5, 5 ug; 12 hr. The method, then: RAW264.7 cells were dispensed on the coverslip, and grown to >95% confluency. Subsequently, the RAW 264.7 monolayer was scratched to create wounds, and then the wounds were treated with 100 nM KRS proteins (WT, ▴N12) or KRS exosomes (0.05, 0.5, 5 ug) in their respective concentrations, followed by incubation for 12 hr. The cell morphology of cells was observed using microscopy.

Series [8] concerns RAW264.7 cells. Description: Luminex screening assays (bead-based multiplex kits). Type of series: cell-based. To be noted: 100 nM KRS proteins or KRS exosomes 5 ug/ml; 12 hr. The method, then: RAW264.7 cells were incubated in 12-well plate using DMEM media containing 10% FBS and 1% antibiotic for 12 hr, and starved in serum starvation media for 2 hr. KRS proteins (WT, ▴N12 each) and KRS exosomes (5 ug) in different amounts were respectively added to the media. After 12 hr, conditioned media were collected, and spun down through centrifugation at 3,000 g for 10 min. For multiplex assay, premixed beads for TNF-alpha, mCRG-2, IL-6, mIL-lbeta, mIL-12, mIL-10, MMP9, INF-gamma, mMIP3a, and CXCL10 were purchased from R&D Science, and used according to the manufacturer's protocol. Each sample were analyzed by BioRad Bioplex 200 system and software.

Consider `COC(=O)C[C@H](NC(=O)[C@H](C)NC(=O)[C@@H](NC(=O)OCc1ccccc1)C(C)C)C(=O)CF` [pan-caspase inhibitor, Z-VAD-FMK] (Cbz-Val-Ala-Asp(OMe)-CH2F), for which the “KRS cleavage after caspase inhibitor treatment” value in the series on HCT116 cells [1] (GFP-KRS overexpressed cells, serum starvation media, Z-VAD-FMK 14 uM, 1 hr) is “reduced”. In the series with HCT116 cells [2], the “KRS secretion after caspase inhibitor treatment” value is listed as “reduced”.

Turning to “D12A mutant: variant in which Asp, 12th amino acid of KRS WT, is replaced with Ala; not cleaved by caspase-8”, in the series on HCT116 cells [3], the “exosome secretion of KRS variant compared with WT” value is on record as “significantly reduced”. In the series on HCT116 cells [1] (GFP-KRS variant overexpressed in HCT116 cells, serum starvation 1 hr), the “cleavage of KRS variant compared with WT” value is “reduced”. Further, the “BiFC fluorescence (KRS-syntenin binding)” value in the series with KRS and syntenin-1 [4] was “not observed”. In the series with KRS and syntenin-1 [5], the “binding of KRS variant with syntenin-1 compared with WT” value is recorded as “less”. In addition, the “secretion of KRS variant compared with WT” value in the series with HCT116 cells [2] is recorded as “reduced”.

On to “KRS WT: full-length human lysyl tRNA synthetase (1-597), SEQ ID NO: 2”, for which the “TNF-alpha secretion from macrophages” value in the series with RAW264.7 cells [6] is given as “increasing TNF-alpha secretion”. The cytokine activity result in “Cytokine activity of KRS” is given as “identical”. Also, the “migration of macrophages (wound-healing assay)” value in the series with RAW264.7 cells [7] is “increased”. For the same molecule, in the series with RAW264.7 cells [8], the “secretion of IL-6 from macrophages” value was “induced”, the “secretion of MMP9 from macrophages” value is listed as “induced”, the “secretion of TNF-alpha from macrophages (luminex)” value is given as “induced” and the “secretion of mCRG-2 from macrophages” value is reported as “induced”.

Regarding Z-VAD-DQMD [caspase-3 inhibitor], in the series with HCT116 cells [2], the “KRS secretion after caspase inhibitor treatment” value is reported as “only caspase-8 inhibitor inhibited KRS secretion”.

As to Z-VAD-IETD [caspase-8 inhibitor], the “BiFC fluorescence (KRS-syntenin binding)” value in the series on KRS and syntenin-1 [4] is given as “not observed”. The “binding between KRS and syntenin increased by starvation” value in the series with KRS and syntenin-1 [5] (serum starvation medium with or without caspase-8 inhibiting agent, IP of syntenin-1, anti-KRS western blot) is reported as “reduced”. The “KRS secretion after caspase inhibitor treatment” value in the series on HCT116 cells [2] is given as “inhibited KRS secretion”.

As to Z-VAD-VEID [caspase-6 inhibitor], in the series with HCT116 cells [2], the “KRS secretion after caspase inhibitor treatment” value was “only caspase-8 inhibitor inhibited KRS secretion”.

For the molecule “si-KRS: si-RNA against KRS from Invitrogen: GGGAAGACCCAUACCCACACAAGUU, AACUUGUGUGGGUAUGGGUCUUCCC (chemistry not given here)”, the “KRS proteins existing in the exosome” value in the series with HCT116 cells [3] (exosomes purified from si-RNA treated cells, 48 hr then serum starvation 12 hr, vs si-con) is listed as “reduced”.

With “▴N12: KRS fragment 13-597 a.a., the peptide of SEQ ID NO: 1, first 12 N-terminal amino acids deleted”, the “TNF-alpha secretion from macrophages” value in the series on RAW264.7 cells [6] is on record as “increasing TNF-alpha secretion”. For the same molecule, in “Cytokine activity of KRS”, the cytokine activity entry was “identical”. Further, in the series with RAW264.7 cells [7], the “migration of macrophages (wound-healing assay)” value is recorded as “increased”. Also, in the series with RAW264.7 cells [8], the “secretion of IL-6 from macrophages” value was “induced”, the “secretion of MMP9 from macrophages” value is recorded as “induced”, the “secretion of TNF-alpha from macrophages (luminex)” value is reported as “induced” and the “secretion of mCRG-2 from macrophages” value is recorded as “induced”.

For “▴c5: deletion mutant KRS with truncated C-terminus, 1-592 a.a of SEQ ID NO: 2”, the “exosome secretion of KRS variant compared with WT” value in the series with HCT116 cells [3] is reported as “reduced”. Also, the “binding of KRS variant with syntenin-1 compared with WT” value with KRS and syntenin-1 [5] was “significantly deteriorated”. The “secretion of KRS variant compared with WT” value with HCT116 cells [2] is listed as “less”.
